{"source": "patent US20250129083A1", "about": "“IMIDAZOTETRAZINE COMPOUNDS AND TREATMENT OF TMZ-RESISTANT CANCERS” (THE BOARD OF TRUSTEES OF THE UNIVERSITY OF ILLINOIS, priority 2022, published 2025)", "key": {"U87 GBM cell line": {"tested_on": "U87 GBM cell line", "experiment": "Cell viability assay (Alamar Blue, 7 days), U87", "format": "cell-based, human", "settings": "Homo sapiens, 168 h, MGMT (−) MMR (+), 600 c/w, SEM, n=3, read-out: Activity, U87", "description": "(§1) Cell Culture and Reagents. All cell lines were grown in a 37° C., 5% CO2, humidified environment, in media containing 1% penicillin/streptomycin. Stable cell line generation of GL261 MGMT+ was purchased from Creative Biogene. Cell culture conditions are as follows: cell lines U87, T98G, and RKO were grown in EMEM with 10% FBS. D54, GL261, GL261 MGMT+, and U118MG cell lines were grown in DMEM with 10% FBS. HCT116 cells were grown in RMPI with 10% FBS. D341 Med cells were grown in EMEM with 20% FBS. Temozolomide (TMZ) was purchased from AK Scientific. TMZ analogues were synthesized as described below. Compounds were dissolved in DMSO (1% final concentration, Fisher Chemical) for cell culture studies.\n(§2) Cell Viability Assays. Cells were harvested, seeded in a 96-well plate and allowed to adhere. After three hours, compound was added to each well in DMSO (1% final concentration). Cells were incubated for seven days (unless otherwise noted) before viability was assessed by the Alamar Blue assay. Raptinal (20 μM) was used as a dead control.\n(§3) Plated 1500 c/w for GL261; 600 c/w for U87; 600 c/w for U118MG; 1500 c/w for GL261 MGMT+ Incubated ovn and added 1 μL of compound in DMSO the next day. Incubated over 7 days; added Alamar Blue to assess cell viability and used 10 μM Raptinal as dead control. Error is SEM, n=3."}, "GL261 cells": {"tested_on": "GL261 cells", "experiment": "Cell viability assay (Alamar Blue, 7 days), GL261", "format": "cell-based", "settings": "Mus musculus, GL261, 168 h; MGMT (−) MMR (+); 7 days; 1500 c/w; SEM, n=3; read-out: Activity, GL261", "description": "as §1, §2, §3"}, "GL261 MGMT+ cells": {"tested_on": "GL261 MGMT+ cells", "experiment": "Cell viability assay (Alamar Blue, 7 days), GL261 MGMT+", "format": "cell-based", "settings": "Mus musculus, GL261, 168 h; MGMT (+) MMR (+); 7 days; 1500 c/w; SEM, n=3; read-out: Activity, GL261 MGMT+", "description": "To further explore the ability of CPZ to evade MGMT-mediated resistance, MGMT-expressing T98G cells were pretreated with MGMT inhibitor O6BG followed by treatment with TMZ or CPZ. […] This cell death potentiation by TMZ upon treatment with an MGMT inhibitor was also observed in MGMT-expressing cell lines U118MG and RKO, whereas the efficacy of CPZ was again unaffected. For MGMT (−)/MMR (−) HCT116 cells, negligible potentiation of TMZ cytotoxicity was observed upon pretreatment with O6BG, confirming that loss of MMR capacity, not MGMT expression, was responsible for resistance to TMZ in HCT116 cells. Additionally, human MGMT was knocked into the MGMT-negative mouse glioma cell line, GL261, establishing the novel cell line GL261 MGMT+.\nas §1, §2, §3"}, "U118MG cells": {"tested_on": "U118MG cells", "experiment": "Cell viability assay (Alamar Blue, 7 days), U118MG", "format": "cell-based", "settings": "Homo sapiens, U-118-MG, 168 h, MGMT (+) MMR (+), 600 c/w, SEM, n=3", "description": "as §1, §2, §3"}, "HCT116 cells": {"tested_on": "HCT116 cells", "experiment": "Cell viability assay (Alamar Blue, 7 days), HCT116", "format": "cell-based", "settings": "Homo sapiens, HCT-116, 168 h; MGMT (−) MMR (−); 7 days; read-out: Activity, HCT116", "description": "as §1, §2"}, "[1]": {"tested_on": "RKO colon cancer cell line", "experiment": "Cell viability assay (Alamar Blue, 7 days), RKO", "format": "cell-based", "settings": "168 h; 7 days; read-out: Activity, RKO", "description": "as §1, §2"}, "[2]": {"experiment": "Hydrolytic stability studies", "format": "physicochemical", "settings": "PBS, pH 7.4, 37° C.; HPLC", "description": "Hydrolytic Stability Studies. Compound (100 μM) was incubated at 37° C. in PBS at pH 7.4 (unless otherwise noted). At the indicated time point, an aliquot was collected and analyzed by HPLC. Compound peaks were integrated and compared to the integration at to calculate the percentage of prodrug remaining."}, "[3]": {"tested_on": "S. typhimurium TA100 strain", "experiment": "Ames test, TA100", "format": "cell-based", "settings": "30 μM", "description": "(§4) Next, we measured the mutagenicity of CPZ versus TMZ. TMZ and other DNA methylating chemotherapies are known mutagens, inducing G:C→A:T mutations due to erroneous recognition of O^6-methylguanine. […] CPZ and TMZ (at 30 μM) were also assessed in the E. coli WP2 uvrA pKM101 strain, which is considered one of the more sensitive Ames tester strains available.\nAmes Test. Compounds were assessed at the indicated concentrations in the TA100 tester strain using the Muta-ChromoPlate 96-well microplate version of the Ames test (Environmental Bio-Detection Products, Prod. No. 5051) according to manufacturer's instructions. In brief, TA100 S. typhimurium bacteria were grown overnight and plated with compound, growth medium, and indicator (no S9 activation) in 96 well plates. Bacteria were incubated for 5 days before the number of wells per 96 well plate containing revertant colonies were identified colorimetrically."}, "[4]": {"tested_on": "E. coli WP2 uvrA pKM101 strain", "experiment": "Ames test, E. coli WP2 uvrA pKM101", "format": "cell-based", "settings": "30 μM", "description": "as §4"}, "[5]": {"experiment": "Maximum tolerated dose / tolerability in mice", "format": "in vivo", "settings": "for MTD at 5 days: in vivo, 66 mg/kg, once per day over 5 days"}, "[6]": {"experiment": "Solubility in IV formulations", "format": "physicochemical", "settings": "IV formulation"}, "[7]": {"experiment": "Hepatic metabolism: stability in mouse liver microsomes", "format": "in vitro ADME"}, "Brain tissue binding": {"experiment": "Brain tissue binding", "format": "in vitro ADME", "settings": "10 uM, 1 h at 37 C in brain tissue homogenate"}, "[8]": {"experiment": "Syngeneic subcutaneous model", "format": "in vivo", "settings": "C57BL/6 mice, 1×10^6 cells; 50 mg/kg IV 1×/day over 5 days from day 5", "description": "FIG. 10A-B. Syngeneic Subcutaneous Model (A, B). TABZ and TMZ in vivo: C57BL/6 mice were inoculated with 1×10^6 cells and treated xl/day over 5 days with either vehicle, TMZ, or TABZ (via IV, 50 mg/kg, starting on day 5)."}, "cancer cells": {"tested_on": "cancer cells", "experiment": "Rapid cancer cell death phenotype", "format": "cell-based", "settings": "relative to TMZ", "from_the_text": "FIG. 8A-C. Rapid Cancer Cell Death Phenotype."}, "[9]": {"settings": "6.6 mg/mL solution for 200 μL injection"}}, "note": "Read-outs that look alike come from different tables or passages of the source."}
{"smiles": "CC#CCn1nnc2c(C(=O)N(C)C)ncn2c1=O", "note": "[TABZ, 3-(but-2-yn-1-yl)-N,N-dimethyl-4-oxo-3,4-dihydroimidazo[5,1-d][1,2,3,5]tetrazine-8-carboxamide]", "values": [{"measurement": "IC50", "setting": "U87 GBM cell line", "result": "16 ± 2", "unit": "µM"}, {"measurement": "IC50", "setting": "GL261 cells", "result": "35 ± 2", "unit": "µM"}, {"measurement": "IC50", "setting": "GL261 MGMT+ cells", "result": "18 ± 1", "unit": "µM"}, {"measurement": "IC50", "setting": "U118MG cells", "result": "24 ± 5", "unit": "µM"}, {"measurement": "IC50", "setting": "HCT116 cells", "result": "6 ± 0.42", "unit": "µM"}, {"measurement": "IC50", "setting": "[1]", "result": "9 ± 1", "unit": "µM"}, {"measurement": "Hydrolytic stability: percentage of prodrug remaining after 2 hours", "setting": "[2]", "result": "31±1", "unit": "%"}, {"measurement": "Mutagenicity, TA100", "setting": "[3]", "result": "non-mutagenic"}, {"measurement": "Mutagenicity, E. coli WP2 uvrA pKM101", "setting": "[4]", "result": "non-mutagenic"}, {"measurement": "Tolerated dose, 1×/day via IV injection", "setting": "[5]", "result": 50, "unit": "mg/kg"}, {"measurement": "MTD at 5 days", "setting": "[5]; female, C57BL/6, mouse, ip, intraperitoneal, read-out: MTD, I.P.", "result": 66, "unit": "mg/kg"}, {"measurement": "MTD at 5 days", "setting": "[5]; mouse, intravenous, read-out: MTD, I.V.", "result": 66, "unit": "mg/kg"}, {"measurement": "Solubility in 20/80 DMSO/PBS", "setting": "[6]; 5 mg/mL solution for 100 μL injection", "result": "Soluble*"}, {"measurement": "Solubility in 15/7/5/73 DMSO/NMP/T20/20% SPE-βCD", "setting": "[6]; [9]", "result": "Soluble >25 min"}, {"measurement": "Solubility in 15/10/75 DMSO/NMP/20% SPE-βCD", "setting": "[6]; [9]", "result": "Soluble 20 min"}, {"measurement": "Stability (2 h, with MLM)", "setting": "[7]; percentage remaining relative to t0, mouse liver microsomes, SEM, n ≥ 2", "result": "77 ± 2", "unit": "%"}, {"measurement": "Stability (2 h, no MLM)", "setting": "[7]; percentage remaining, microsomes replaced with PBS", "result": "87 ± 2", "unit": "%"}, {"measurement": "Brain tissue binding, insoluble fraction, tissue homogenizer", "setting": "Brain tissue binding", "result": "40 ± 4", "unit": "%"}, {"measurement": "Brain tissue binding, insoluble fraction, ultrasonication", "setting": "Brain tissue binding", "result": "39 ± 4", "unit": "%"}, {"measurement": "Brain tissue binding, soluble fraction, tissue homogenizer", "setting": "Brain tissue binding", "result": "64 ± 4", "unit": "%"}, {"measurement": "Brain tissue binding, soluble fraction, ultrasonication", "setting": "Brain tissue binding", "result": "61 ± 4", "unit": "%"}, {"measurement": "Tumor growth", "setting": "[8]", "result": "no exacerbation"}, {"measurement": "Speed of cell death induction", "setting": "cancer cells", "result": "induce cell death quickly relative to TMZ"}]}
